Results reported in patent publication US5776929A, “Benzodiazepine derivative” (Shionogi & Co., Ltd., priority 1993, dated 1998).

Key:
gastrin receptor = target: T1, gastrin receptor (Cavia porcellus, UniProt H0VZC5); assay: Gastrin receptor antagonism, displacement of 125I-labeled gastrin, gastric (fundic) gland cells; format: binding, guinea pig (male Hartley); conditions: guinea pig gastric glands, 125I-gastrin 0.2 nM, 30 min, 25 °C; read-out: Receptor Gastrin (IC50)
T1 construct: stomach was extracted from each animal immediately, from which gastric glands were prepared; from tissue; host or cells: gastric (fundic) glands of male Hartley guinea pigs
T1 sequence (H0VZC5 1-426): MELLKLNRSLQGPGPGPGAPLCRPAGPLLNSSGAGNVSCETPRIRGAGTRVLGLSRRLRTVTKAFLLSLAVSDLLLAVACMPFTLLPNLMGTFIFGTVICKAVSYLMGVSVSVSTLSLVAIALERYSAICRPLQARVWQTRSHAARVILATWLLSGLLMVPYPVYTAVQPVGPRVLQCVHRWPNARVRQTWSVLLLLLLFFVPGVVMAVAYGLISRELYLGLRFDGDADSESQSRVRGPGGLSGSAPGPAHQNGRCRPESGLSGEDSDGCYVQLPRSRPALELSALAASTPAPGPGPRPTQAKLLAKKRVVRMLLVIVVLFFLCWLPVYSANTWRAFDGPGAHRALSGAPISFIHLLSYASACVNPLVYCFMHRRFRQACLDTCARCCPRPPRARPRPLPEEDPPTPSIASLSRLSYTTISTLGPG
Protocol: (§1) Male Hartley guinea pig (450-600 g) or male ddY mouse (24-30 g) were used.
(1) Gastrin Receptor Antagonism
Preparation of gastric glands:
Male Hartley guinea pigs (450-600 g) were killed by bleeding and stomach was extracted from each animal immediately, from which gastric glands were prepared.
Preparation of test compounds and procedures of displacing assay
A 1M solution of a compound to be tested in DMSO is prepared and diluted with 50% DMSO to obtain a ten-fold dilution series.
The mixture is incubated for 30 min at 25° C., centrifuged at 2000 rpm for 5 min and the supernatant is removed by aspiration. To the pellet is added ice-cooled incubation buffer and mixed gently, followed by an immediate centrifugation and removal of the supernatant by aspiration. The radioactivity is counted on gamma counter. The same procedure was repeated using 50% DMSO solution or human gastrin I (final concentration, 2 μM) instead of a solution of test compound so as to obtain the control value regarding total binding or the value regarding non-specific binding, respectively. […]
(§2) specific binding of control=total binding (cpm)-non-specific binding (cpm); and specific binding of test compound=[…]-non-specific binding (cpm).

CCK-B receptor = target: T2, CCK-B receptor (Mus musculus, UniProt P56481); assay: CCK-B receptor antagonism, displacement of [3H]CCK-8, cerebral cortex crude membrane; format: binding, mouse (male ddY); conditions: mouse cerebral cortex membrane, [3H]CCK-8 1 nM, 90 min, 25 °C; read-out: Receptor CCK-B (IC50)
T2 construct: crude membrane specimen from mouse cerebral cortex; from tissue; host or cells: cerebral cortex of male ddY mice, crude membranes
T2 sequence (P56481 1-453): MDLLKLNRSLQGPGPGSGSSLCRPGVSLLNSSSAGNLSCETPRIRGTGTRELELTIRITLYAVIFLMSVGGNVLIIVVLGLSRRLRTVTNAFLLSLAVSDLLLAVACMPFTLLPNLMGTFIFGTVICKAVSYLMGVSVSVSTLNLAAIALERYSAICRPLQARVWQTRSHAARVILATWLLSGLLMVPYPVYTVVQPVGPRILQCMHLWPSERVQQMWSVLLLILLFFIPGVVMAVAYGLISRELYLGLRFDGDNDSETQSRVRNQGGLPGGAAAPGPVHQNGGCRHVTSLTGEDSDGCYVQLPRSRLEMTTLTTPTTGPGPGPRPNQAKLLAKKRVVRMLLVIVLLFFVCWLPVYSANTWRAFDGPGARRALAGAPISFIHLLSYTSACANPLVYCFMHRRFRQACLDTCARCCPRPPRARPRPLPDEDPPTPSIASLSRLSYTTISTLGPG
Protocol: as §1
(§3) (2) CCK-A Receptor Antagonism and CCK-B Receptor Antagonism
(§4) Preparation of CCK receptor preparations
(§5) Male ddY mice (24 to 30 g) were killed by decapitation and cerebral cortex (CCK-B) and pancreas (CCK-A) were extracted immediately. Each of cerebral cortex and pancreas was mixed with 50 mM Tris-HCl buffer (pH 7.4) and homogenized with a teflon-glass homogenizer and polytron homogenizer to obtain crude membrane specimens.
(§6) Preparation of test compounds and procedures of displacing assay A 1M solution of a compound to be tested in DMSO is prepared and diluted with 50% DMSO to obtain a ten-fold dilution series.
(§7) The reaction is initiated by the addition of crude membrane specimen to solutions of different concentration each containing [^3 H]CCk-8 (final concentration, 1 nM). The mixture is incubated for 90 min at 25° C., filtered through glass filter with aspiration and washed with a cooled 50 mM Tris buffer. After the addition of Aquazol-2 cocktail the radioactivity is counted. The same procedure was repeated using 50% DMSO solution or Ceruletide (final concentration, 1 μM) instead of a solution of test compound so as to obtain the control value regarding total binding or the value regarding non-specific binding, respectively. […]
as §2

CCK-A receptor = target: T3, CCK-A receptor (Mus musculus, UniProt O08786); assay: CCK-A receptor antagonism, displacement of [3H]CCK-8, pancreas crude membrane; format: binding, mouse (male ddY); conditions: mouse pancreas membrane, [3H]CCK-8 1 nM, 90 min, 25 °C; read-out: Receptor CCK-A (IC50)
T3 construct: crude membrane specimen from mouse pancreas; from tissue; host or cells: pancreas of male ddY mice, crude membranes
T3 sequence (O08786 1-436): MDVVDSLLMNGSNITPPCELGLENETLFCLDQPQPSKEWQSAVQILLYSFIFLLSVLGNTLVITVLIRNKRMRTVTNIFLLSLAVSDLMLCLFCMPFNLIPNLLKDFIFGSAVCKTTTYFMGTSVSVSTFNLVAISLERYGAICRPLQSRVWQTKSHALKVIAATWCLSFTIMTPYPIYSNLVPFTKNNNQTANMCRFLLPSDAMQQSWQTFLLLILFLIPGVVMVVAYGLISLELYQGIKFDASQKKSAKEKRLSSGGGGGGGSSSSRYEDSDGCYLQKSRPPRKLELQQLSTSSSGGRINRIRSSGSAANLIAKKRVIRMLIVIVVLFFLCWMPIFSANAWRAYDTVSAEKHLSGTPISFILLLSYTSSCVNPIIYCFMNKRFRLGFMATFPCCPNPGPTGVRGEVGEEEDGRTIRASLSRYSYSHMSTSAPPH
Protocol: as §1, §3, §4, §5, §6, §7, §2

gastric acid secretion = assay: Inhibitory effect on gastric acid secretion by Schild method (pentagastrin-stimulated); format: in vivo, rat (male Sprague Dawley); conditions: intraduodenal, rat, read-out: Inhibitory Effect on acid secretion (Schild method), percent inhibition
Description: Evaluation of Inhibitory Effect on Gastric Acid Secretion by Schild Method
Twenty four hour starved (ad libitum for water) male Sprague Dawley rats (8-week-old) were anesthetized with urethane (1.5 g/kg S.C.) and kept breathing with esophagus cannulas. After laparotomy, esophagus cannulas were inserted orally up to proventriculus and ligated around gastric cardiac. Perfusion cannulas were inserted from duodenum into stomach and ligated around pylorus. Another cannulas were placed into duodenum and ligated for administration of drug. After sutra of abdomen, stomach was perfused via the esophagus cannulas with physiological saline (37° C.) while collecting perfusate for a 15 min interval. The perfusate was subjected to titration with 0.001 N NaOH solution to determine the acidity. When the basal acid secretion became stable, pentagastrin ([…]) was administered in a sustained manner via common carotid vein for about 90 min until the acid secretion reached approximately the highest level, when a test compound (0.5% M.C. suspension) was administered into duodenum through cannulas. The perfusate was collected for a 15 min interval to monitor the acid secretion for 90 min. The percent inhibition was calculated as follows:
Percent inhibition (%)=100×(A-B)/(C-B)
A: the minimum value of total acidity observed after the administration of a test compound;
B: the total acidity obtained immediately before the administration of pentagastrin; and
C: the total acidity obtained immediately before the administration of a test compound.

SMILES	IC50 (gastrin receptor) [nM]	IC50 (CCK-B receptor) [nM]	IC50 (CCK-A receptor) [nM]	inhibition in vivo at 0.3 mg/kg (gastric acid secretion) [%]	inhibition in vivo at 0.1 mg/kg (gastric acid secretion) [%]
Cc1cccc(NC(=O)NC2C(=O)N(CC(=O)N3CCCC3)c3ccccc3N(CC(=O)N3CCCC3)C2=O)c1 [Compound 8a]	7	54	860	49	
Cc1cccc(NC(=O)NC2C(=O)N(CC(=O)c3ccccc3C)c3ccccc3N(CC(=O)c3ccccc3C)C2=O)c1 [Compound 8d, 1,5-Bis-(o-methylphenacyl)-3-{N'-(m-tolyl)-ureido}-1H-1,5-benzodiazepine-2,4(3H,5H)-dione]	4	11	29	66	
Cc1cccc(NC(=O)NC2C(=O)N(CC(=O)c3ccco3)c3ccccc3N(CC(=O)c3ccco3)C2=O)c1 [Compound 8f, 1,5-Bis-(2-furylcarbonylmethyl)-3-{N'-(m-tolyl)-ureido}-1H-1,5-benzodiazepine-2,4(3H,5H)-dione]	3	17	120	73	
Cc1cccc(NC(=O)NC2C(=O)N(CC(=O)C3CC3)c3ccccc3N(CC(=O)C3CC3)C2=O)c1 [Compound 8h, 1,5-Bis-(cyclopropylcarbonylmethyl)-3-(N'-(m-tolyl)ureido)-1H-1,5-benzodiazepine-2,4(3H,5H)-dione]	5	18	380	81	
Cc1cccc(NC(=O)NC2C(=O)N(CC3CC3)c3ccccc3N(CC3CC3)C2=O)c1 [Compound 8o, 1,5-Bis-(cyclopropylmethyl)-3-{N'-(m-tolyl)-ureido}-1H-1,5-benzodiazepine-2,4(3H,5H)-dione]	12	23	860	60	
Cc1cccc(NC(=O)NC2C(=O)N(Cc3cccc(N)c3)c3ccccc3N(Cc3cccc(N)c3)C2=O)c1 [Compound 8r]	18	21	760	46	
CCOC(=O)c1cccc(NC(=O)NC2C(=O)N(CC(=O)C3CC3)c3ccccc3N(CC(=O)C3CC3)C2=O)c1 [Compound 17-i]	7	140	1350	44	
O=C(Nc1cccc(C(=O)O)c1)NC1C(=O)N(CC(=O)C2CC2)c2ccccc2N(CC(=O)C2CC2)C1=O [Compound 17-ii]	5	105	> 10000	72	
CC(C)S(=O)(=O)NC(=O)c1cccc(NC(=O)NC2C(=O)N(CC(=O)C3CC3)c3ccccc3N(CC(=O)C3CC3)C2=O)c1 [Compound 17-iii, 1,5-Bis-(cyclopropylcarbonylmethyl)-3-(N'-(m-(isopropylsulfonylaminocarbonyl)phenyl)ureido)-1H-1,5-benzodiazepine-2,4(3H,5H)-dione]	6	190	11500	47	
O=C(Nc1cccc(-c2nnn[nH]2)c1)NC1C(=O)N(CC(=O)C2CC2)c2ccccc2N(CC(=O)C2CC2)C1=O [Compound 17-iv, 1,5-Bis-(cyclopropylcarbonylmethyl)-3-(N'-(m-(tetrazoyl)phenyl)ureido)-1H-1,5-benzodiazepine-2,4(3H,5H)-dione]	2	8	2900		44
O=C(O)CSc1cccc(NC(=O)NC2C(=O)N(CC(=O)C3CC3)c3ccccc3N(CC(=O)C3CC3)C2=O)c1 [Compound 17-ix, 1,5-Bis-(cyclopropylcarbonylmethyl)-3-(N'-(m-(carboxymethylthio)phenyl)ureido)-1H-l,5-benzodiazepine-2,4(3H,5H)-dione]	0.6	2	500		74
CCOC(=O)COc1cccc(NC(=O)NC2C(=O)N(CC(=O)C3CC3)c3ccccc3N(CC(=O)C3CC3)C2=O)c1 [Compound 17-v, 1,5-Bis-(cyclopropylcarbonylmethyl)-3-(N'-(m-(carboethoxymethoxy)phenyl)ureido)-1H-1,5-benzodiazepine-2,4(3H,5H)-dione]	16	180	3600	59	
O=C(O)COc1cccc(NC(=O)NC2C(=O)N(CC(=O)C3CC3)c3ccccc3N(CC(=O)C3CC3)C2=O)c1 [Compound 17-vi, 1,5-Bis-(cyclopropylcarbonylmethyl)-3-(N'-(m-(carboxymethoxy)phenyl)ureido)-1H-1,5-benzodiazepine-2,4(3H,5H)-dione]	3	16	4400	22	
O=C(Nc1cccc(OCc2nnn[nH]2)c1)NC1C(=O)N(CC(=O)C2CC2)c2ccccc2N(CC(=O)C2CC2)C1=O [Compound 17-vii, 1,5-Bis-(cyclopropylcarbonylmethyl)-3-(N'-(m-(tetrazoylmethoxy)phenyl)ureido)-1H-1,5-benzodiazepine-2,4(3H,5H)-dione]	11	4	1800	68	
